Read-outs that look alike come from different tables or passages of the source.
Assays:
CDK16/Cyclin Y = CDK16/Cyclin Y (Homo sapiens, UniProt Q00536); experiment: NanoBRET live-cell target engagement, CDK16-NanoLuc/Cyclin Y in HEK-293; format: binding; conditions: CDK16/Y
CDK15/Cyclin Y = CDK15/Cyclin Y (Homo sapiens, UniProt Q96Q40); experiment: NanoBRET live-cell target engagement, NanoLuc-CDK15/Cyclin Y in HEK-293; format: binding; conditions: CDK15/Y
CDK12/Cyclin K = CDK12/Cyclin K (Homo sapiens, UniProt Q9NYV4); experiment: NanoBRET live-cell target engagement, CDK12-NanoLuc/Cyclin K in HEK-293; format: binding; conditions: CDK12/K
CDK18/Cyclin Y = CDK18/Cyclin Y (Homo sapiens, UniProt Q07002); experiment: NanoBRET live-cell target engagement, CDK18-NanoLuc/Cyclin Y in HEK-293; format: binding; conditions: CDK18/Y
CDK18/Cyclin Y, sequence (Q07002 whole entry): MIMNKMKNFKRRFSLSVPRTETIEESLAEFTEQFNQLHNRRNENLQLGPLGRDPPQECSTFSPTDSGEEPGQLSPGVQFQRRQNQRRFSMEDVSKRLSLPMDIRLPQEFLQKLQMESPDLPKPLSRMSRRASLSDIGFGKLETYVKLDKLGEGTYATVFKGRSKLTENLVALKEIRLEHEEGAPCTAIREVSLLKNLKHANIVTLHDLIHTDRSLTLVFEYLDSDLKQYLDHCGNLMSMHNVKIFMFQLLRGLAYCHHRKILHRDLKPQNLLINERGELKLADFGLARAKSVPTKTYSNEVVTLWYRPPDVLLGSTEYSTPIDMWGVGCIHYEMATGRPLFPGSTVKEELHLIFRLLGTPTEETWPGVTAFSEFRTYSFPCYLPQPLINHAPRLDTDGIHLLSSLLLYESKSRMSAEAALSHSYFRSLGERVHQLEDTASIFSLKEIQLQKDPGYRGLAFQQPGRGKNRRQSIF
CDK18/Cyclin Y, sequence (Q8ND76 whole entry partner): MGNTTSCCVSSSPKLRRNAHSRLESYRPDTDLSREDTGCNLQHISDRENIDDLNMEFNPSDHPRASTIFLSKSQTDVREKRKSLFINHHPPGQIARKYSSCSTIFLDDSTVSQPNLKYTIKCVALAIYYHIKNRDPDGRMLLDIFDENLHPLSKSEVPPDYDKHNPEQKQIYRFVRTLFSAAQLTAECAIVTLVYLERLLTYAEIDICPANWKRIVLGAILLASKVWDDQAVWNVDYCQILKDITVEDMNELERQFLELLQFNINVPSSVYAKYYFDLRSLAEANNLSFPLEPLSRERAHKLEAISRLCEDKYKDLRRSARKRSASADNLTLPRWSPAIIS

CDK5/CDK5R1 = CDK5/CDK5R1 (Homo sapiens, UniProt Q00535); experiment: NanoBRET live-cell target engagement, CDK5-NanoLuc/CDK5R1 in HEK-293; format: binding; conditions: CDK5/CDK5R1; for IC50: read-out: IC50
CDK6/Cyclin D1 = CDK6/Cyclin D1 (Homo sapiens, UniProt Q00534); experiment: NanoBRET live-cell target engagement, NanoLuc-CDK6/Cyclin D1 in HEK-293; format: binding; conditions: CDK6/D1
CDK6/Cyclin D1, sequence (Q00534 whole entry): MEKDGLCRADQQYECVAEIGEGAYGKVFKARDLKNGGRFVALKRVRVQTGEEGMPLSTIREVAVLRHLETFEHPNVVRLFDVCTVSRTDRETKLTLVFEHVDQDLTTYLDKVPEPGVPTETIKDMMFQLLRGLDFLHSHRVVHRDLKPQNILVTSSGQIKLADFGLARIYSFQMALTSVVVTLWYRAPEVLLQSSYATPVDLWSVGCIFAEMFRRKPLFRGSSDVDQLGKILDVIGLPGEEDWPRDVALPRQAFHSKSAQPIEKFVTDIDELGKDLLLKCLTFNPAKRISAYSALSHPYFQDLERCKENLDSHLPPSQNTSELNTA
CDK6/Cyclin D1, sequence (P24385 whole entry partner): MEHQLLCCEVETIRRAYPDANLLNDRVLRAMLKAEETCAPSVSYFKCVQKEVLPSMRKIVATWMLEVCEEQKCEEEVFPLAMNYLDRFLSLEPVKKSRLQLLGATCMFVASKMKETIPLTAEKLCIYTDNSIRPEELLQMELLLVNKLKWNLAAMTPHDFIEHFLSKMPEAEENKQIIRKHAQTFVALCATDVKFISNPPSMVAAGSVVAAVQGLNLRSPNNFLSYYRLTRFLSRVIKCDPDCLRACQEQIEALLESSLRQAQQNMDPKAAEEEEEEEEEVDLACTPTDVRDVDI

CDK11B/Cyclin L2 = CDK11B/Cyclin L2 (Homo sapiens, UniProt P21127); experiment: NanoBRET live-cell target engagement, CDK11B-NanoLuc/Cyclin L2 in HEK-293; format: binding; conditions: CDK11b/L2
CDK1/Cyclin E1 = CDK1/Cyclin E1 (Homo sapiens, UniProt P06493); experiment: NanoBRET live-cell target engagement, CDK1-NanoLuc/Cyclin E1 in HEK-293; format: binding; conditions: CDK1/E1; for IC50: read-out: IC50
CDK1/Cyclin E1, sequence (P06493 whole entry): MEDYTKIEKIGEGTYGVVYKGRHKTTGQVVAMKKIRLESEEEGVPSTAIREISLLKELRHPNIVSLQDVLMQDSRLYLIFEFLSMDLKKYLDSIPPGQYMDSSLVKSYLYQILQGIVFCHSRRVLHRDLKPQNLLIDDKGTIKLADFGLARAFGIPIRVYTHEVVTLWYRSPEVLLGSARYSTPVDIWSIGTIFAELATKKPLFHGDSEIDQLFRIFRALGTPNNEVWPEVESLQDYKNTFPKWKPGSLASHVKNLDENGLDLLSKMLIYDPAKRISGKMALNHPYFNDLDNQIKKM
CDK1/Cyclin E1, sequence (P24864 whole entry partner): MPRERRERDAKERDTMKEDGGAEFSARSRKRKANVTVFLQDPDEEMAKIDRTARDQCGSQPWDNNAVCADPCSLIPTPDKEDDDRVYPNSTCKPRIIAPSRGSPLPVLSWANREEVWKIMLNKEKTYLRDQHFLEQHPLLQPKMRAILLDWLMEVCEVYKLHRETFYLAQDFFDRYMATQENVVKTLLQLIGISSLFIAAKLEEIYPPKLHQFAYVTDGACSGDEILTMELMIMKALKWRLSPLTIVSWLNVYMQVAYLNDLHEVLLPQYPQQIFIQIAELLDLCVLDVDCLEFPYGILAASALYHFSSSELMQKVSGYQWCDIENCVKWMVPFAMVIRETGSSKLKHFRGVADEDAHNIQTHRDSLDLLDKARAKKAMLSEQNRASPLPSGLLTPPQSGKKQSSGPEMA

CDK8/Cyclin C = CDK8/Cyclin C (Homo sapiens, UniProt P49336); experiment: NanoBRET live-cell target engagement, NanoLuc-CDK8/Cyclin C in HEK-293; format: binding; conditions: CDK8/C; for IC50: read-out: IC50
CDK8/Cyclin C, sequence (P49336 whole entry): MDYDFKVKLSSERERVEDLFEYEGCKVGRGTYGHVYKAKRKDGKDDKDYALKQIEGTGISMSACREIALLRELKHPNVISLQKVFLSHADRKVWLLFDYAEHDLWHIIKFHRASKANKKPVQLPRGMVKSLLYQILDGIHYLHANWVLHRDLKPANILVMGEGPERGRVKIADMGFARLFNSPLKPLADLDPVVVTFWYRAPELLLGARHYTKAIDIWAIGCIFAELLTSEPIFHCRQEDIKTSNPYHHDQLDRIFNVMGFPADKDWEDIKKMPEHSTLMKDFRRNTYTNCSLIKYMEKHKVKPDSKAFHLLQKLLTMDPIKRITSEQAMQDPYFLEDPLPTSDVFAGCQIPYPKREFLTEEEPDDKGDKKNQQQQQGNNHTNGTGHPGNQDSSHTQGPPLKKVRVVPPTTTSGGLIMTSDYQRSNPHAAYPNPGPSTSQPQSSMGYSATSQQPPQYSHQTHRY
CDK8/Cyclin C, sequence (P24863 whole entry partner): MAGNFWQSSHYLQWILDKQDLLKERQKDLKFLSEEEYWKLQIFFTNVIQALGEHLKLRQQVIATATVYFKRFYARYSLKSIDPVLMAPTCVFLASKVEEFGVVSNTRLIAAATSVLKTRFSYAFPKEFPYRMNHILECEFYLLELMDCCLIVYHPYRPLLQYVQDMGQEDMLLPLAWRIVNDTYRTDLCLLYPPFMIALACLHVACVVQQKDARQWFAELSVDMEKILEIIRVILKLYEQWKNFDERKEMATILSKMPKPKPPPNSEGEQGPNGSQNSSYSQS

CDK2/Cyclin E1 = CDK2/Cyclin E1 (Homo sapiens, UniProt P24941); experiment: NanoBRET live-cell target engagement, CDK2-NanoLuc/Cyclin E1 in HEK-293; format: binding; conditions: CDK2/E1; for IC50: read-out: IC50
CDK13/Cyclin K = CDK13/Cyclin K (Homo sapiens, UniProt Q14004); experiment: NanoBRET live-cell target engagement, CDK13-NanoLuc/Cyclin K in HEK-293; format: binding; conditions: CDK13/K
CDK7 = CDK7 (Homo sapiens, UniProt P50613); experiment: NanoBRET live-cell target engagement, NanoLuc-CDK7 in HEK-293; format: binding; conditions: CDK7; for IC50: read-out: IC50
CDK17/Cyclin Y = CDK17/Cyclin Y (Homo sapiens, UniProt Q00537); experiment: NanoBRET live-cell target engagement, CDK17-NanoLuc/Cyclin Y in HEK-293; format: binding; conditions: CDK17/Y
CDK17/Cyclin Y, sequence (Q00537 whole entry): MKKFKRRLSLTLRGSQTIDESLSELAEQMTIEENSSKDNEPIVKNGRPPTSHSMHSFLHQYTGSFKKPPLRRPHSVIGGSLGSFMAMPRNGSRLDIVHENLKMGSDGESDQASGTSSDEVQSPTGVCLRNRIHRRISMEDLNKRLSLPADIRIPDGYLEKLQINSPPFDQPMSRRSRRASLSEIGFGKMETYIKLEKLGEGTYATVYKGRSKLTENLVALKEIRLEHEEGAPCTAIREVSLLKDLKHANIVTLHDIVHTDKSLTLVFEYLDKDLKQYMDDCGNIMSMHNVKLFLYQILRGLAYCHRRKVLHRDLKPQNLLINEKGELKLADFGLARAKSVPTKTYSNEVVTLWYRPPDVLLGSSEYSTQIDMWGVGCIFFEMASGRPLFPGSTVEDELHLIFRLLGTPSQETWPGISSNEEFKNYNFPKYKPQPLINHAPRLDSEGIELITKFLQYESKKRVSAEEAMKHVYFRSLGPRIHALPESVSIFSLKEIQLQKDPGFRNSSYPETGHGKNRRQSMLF
CDK17/Cyclin Y, sequence (Q8ND76 whole entry partner): as the sequence (Q8ND76 whole entry partner) above

CDK3/Cyclin E1 = CDK3/Cyclin E1 (Homo sapiens, UniProt Q00526); experiment: NanoBRET live-cell target engagement, CDK3-NanoLuc/Cyclin E1 in HEK-293; format: binding; conditions: CDK3/E1; for IC50: read-out: IC50
CDK3/Cyclin E1, sequence (Q00526 whole entry): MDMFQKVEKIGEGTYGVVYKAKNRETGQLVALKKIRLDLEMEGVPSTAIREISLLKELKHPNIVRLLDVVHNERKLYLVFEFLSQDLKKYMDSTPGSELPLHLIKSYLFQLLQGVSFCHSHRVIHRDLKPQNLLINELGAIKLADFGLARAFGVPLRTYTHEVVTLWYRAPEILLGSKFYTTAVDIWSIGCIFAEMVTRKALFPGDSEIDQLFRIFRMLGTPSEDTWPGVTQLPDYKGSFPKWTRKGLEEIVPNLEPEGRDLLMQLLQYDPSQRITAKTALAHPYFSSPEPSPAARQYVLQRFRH
CDK3/Cyclin E1, sequence (P24864 whole entry partner): as the sequence (P24864 whole entry partner) above

CDK9/Cyclin K = CDK9/Cyclin K (Homo sapiens, UniProt P50750); experiment: NanoBRET live-cell target engagement, NanoLuc-CDK9/Cyclin K in HEK-293; format: binding; conditions: CDK9/K
CDK11A/Cyclin L2 = molecular target: T1, CDK11A/Cyclin L2 (Homo sapiens, UniProt Q9UQ88); experiment: NanoBRET live-cell target engagement, CDK11A-NanoLuc/Cyclin L2 in HEK-293; format: binding; conditions: CDK11a/L2
T1 sequence (Q9UQ88 1-783): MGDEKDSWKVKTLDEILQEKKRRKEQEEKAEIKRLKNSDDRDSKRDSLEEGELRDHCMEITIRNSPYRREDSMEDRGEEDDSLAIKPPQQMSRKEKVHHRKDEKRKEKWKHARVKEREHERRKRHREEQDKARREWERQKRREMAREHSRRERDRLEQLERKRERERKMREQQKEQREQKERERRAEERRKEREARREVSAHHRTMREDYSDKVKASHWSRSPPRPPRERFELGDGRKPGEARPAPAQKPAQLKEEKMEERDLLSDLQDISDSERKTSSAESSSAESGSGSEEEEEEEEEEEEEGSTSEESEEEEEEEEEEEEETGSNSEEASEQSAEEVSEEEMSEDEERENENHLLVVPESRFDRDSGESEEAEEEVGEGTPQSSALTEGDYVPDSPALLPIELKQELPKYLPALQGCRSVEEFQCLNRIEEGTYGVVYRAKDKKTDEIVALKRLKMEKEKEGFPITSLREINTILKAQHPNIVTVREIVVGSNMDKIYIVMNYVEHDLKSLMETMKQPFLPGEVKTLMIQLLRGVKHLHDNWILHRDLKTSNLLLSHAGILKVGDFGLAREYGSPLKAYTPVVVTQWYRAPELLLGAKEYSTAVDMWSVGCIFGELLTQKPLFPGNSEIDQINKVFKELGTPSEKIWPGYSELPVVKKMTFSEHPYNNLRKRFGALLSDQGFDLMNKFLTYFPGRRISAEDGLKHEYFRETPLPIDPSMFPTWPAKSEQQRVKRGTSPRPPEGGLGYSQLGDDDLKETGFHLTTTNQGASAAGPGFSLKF

CDK20/Cyclin H = CDK20/Cyclin H (Homo sapiens, UniProt Q8IZL9); experiment: NanoBRET live-cell target engagement, NanoLuc-CDK20/Cyclin H in HEK-293; format: binding; conditions: CDK20/H
CDK4/Cyclin D1 = CDK4/Cyclin D1 (Homo sapiens, UniProt P11802); experiment: NanoBRET live-cell target engagement, NanoLuc-CDK4/Cyclin D1 in HEK-293; format: binding; conditions: CDK4/D1
CDK19/Cyclin C = CDK19/Cyclin C (Homo sapiens, UniProt Q9BWU1); experiment: NanoBRET live-cell target engagement, NanoLuc-CDK19/Cyclin C in HEK-293; conditions: CDK19/C
CDK19/Cyclin C, sequence (Q9BWU1 whole entry): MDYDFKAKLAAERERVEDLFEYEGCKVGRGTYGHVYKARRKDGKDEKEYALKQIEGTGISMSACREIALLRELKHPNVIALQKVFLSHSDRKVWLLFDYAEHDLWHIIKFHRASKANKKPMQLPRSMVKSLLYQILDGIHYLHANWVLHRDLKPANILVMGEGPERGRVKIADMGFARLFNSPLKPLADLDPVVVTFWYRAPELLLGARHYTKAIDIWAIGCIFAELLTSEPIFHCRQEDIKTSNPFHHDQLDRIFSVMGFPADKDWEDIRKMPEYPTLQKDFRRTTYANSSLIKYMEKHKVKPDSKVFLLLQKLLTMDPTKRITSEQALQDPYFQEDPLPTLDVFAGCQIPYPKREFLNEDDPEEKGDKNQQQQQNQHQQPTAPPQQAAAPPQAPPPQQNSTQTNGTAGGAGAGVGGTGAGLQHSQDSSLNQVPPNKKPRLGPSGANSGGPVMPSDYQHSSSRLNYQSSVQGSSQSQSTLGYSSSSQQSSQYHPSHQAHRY
CDK19/Cyclin C, sequence (P24863 whole entry partner): as the sequence (P24863 whole entry partner) above

CDK15/Cyclin Y, sequence (Q96Q40 whole entry): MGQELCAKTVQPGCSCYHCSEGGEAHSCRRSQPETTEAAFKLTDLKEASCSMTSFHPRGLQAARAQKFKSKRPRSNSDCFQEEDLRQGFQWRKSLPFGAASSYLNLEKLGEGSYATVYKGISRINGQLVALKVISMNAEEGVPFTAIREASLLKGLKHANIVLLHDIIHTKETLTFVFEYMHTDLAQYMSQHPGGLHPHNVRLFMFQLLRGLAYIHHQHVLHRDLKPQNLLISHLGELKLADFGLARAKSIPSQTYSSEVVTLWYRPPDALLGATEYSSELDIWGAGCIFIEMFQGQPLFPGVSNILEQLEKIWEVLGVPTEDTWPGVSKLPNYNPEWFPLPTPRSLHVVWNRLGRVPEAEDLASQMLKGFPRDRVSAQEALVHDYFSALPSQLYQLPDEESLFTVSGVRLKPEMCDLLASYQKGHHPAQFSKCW
CDK15/Cyclin Y, sequence (Q8ND76 whole entry partner): as the sequence (Q8ND76 whole entry partner) above

SMILES: CCn1cnc2c(Nc3cccc(Cl)c3)nc(N[C@@H]3CCCC[C@@H]3N)nc21 [CGP74514A]
- Inhibition at 10µM (%) (CDK16/Cyclin Y; experiment 1): 76.4%
- Inhibition at 10µM (%) (CDK16/Cyclin Y; experiment 2): 76.7%
- Inhibition at 10µM (%) (CDK15/Cyclin Y; average): 85.2%
- Inhibition at 10µM (%) (CDK15/Cyclin Y; experiment 1): 84.1%
- Inhibition at 10µM (%) (CDK15/Cyclin Y; experiment 2): 86.4%
- Inhibition at 10µM (%) (CDK12/Cyclin K; average): 36.8%
- Inhibition at 10µM (%) (CDK12/Cyclin K; experiment 1): 42.2%
- Inhibition at 10µM (%) (CDK12/Cyclin K; experiment 2): 31.4%
- Inhibition at 10µM (%) (CDK18/Cyclin Y; average): 86.9%
- Inhibition at 10µM (%) (CDK18/Cyclin Y; experiment 1): 81.1%
- Inhibition at 10µM (%) (CDK18/Cyclin Y; experiment 2): 92.6%
- Inhibition at 10µM (%) (CDK5/CDK5R1; average): 93.3%
- IC50 (CDK5/CDK5R1; average (± SEM where n=3)): 100 nM
- Inhibition at 10µM (%) (CDK5/CDK5R1; experiment 1): 90.4%
- IC50 (CDK5/CDK5R1; experiment 1): 74 nM
- Inhibition at 10µM (%) (CDK5/CDK5R1; experiment 2): 96.2%
- IC50 (CDK5/CDK5R1; experiment 2): 130 nM
- Inhibition at 10µM (%) (CDK6/Cyclin D1; average): 58.7%
- Inhibition at 10µM (%) (CDK6/Cyclin D1; experiment 1): 51.0%
- Inhibition at 10µM (%) (CDK6/Cyclin D1; experiment 2): 66.5%
- Inhibition at 10µM (%) (CDK11B/Cyclin L2; average): 21.5%
- Inhibition at 10µM (%) (CDK11B/Cyclin L2; experiment 1): 20.4%
- Inhibition at 10µM (%) (CDK11B/Cyclin L2; experiment 2): 22.7%
- Inhibition at 10µM (%) (CDK1/Cyclin E1; average): 78.9%
- IC50 (CDK1/Cyclin E1; average (± SEM where n=3)): 130 nM
- Inhibition at 10µM (%) (CDK1/Cyclin E1; experiment 1): 77.7%
- IC50 (CDK1/Cyclin E1; experiment 1): 100 nM
- Inhibition at 10µM (%) (CDK1/Cyclin E1; experiment 2): 80.1%
- IC50 (CDK1/Cyclin E1; experiment 2): 163 nM
- Inhibition at 10µM (%) (CDK8/Cyclin C; average): 3.2%
- IC50 (CDK8/Cyclin C; average (± SEM where n=3)): 260 nM
- Inhibition at 10µM (%) (CDK8/Cyclin C; experiment 1): 5.8%
- IC50 (CDK8/Cyclin C; experiment 1): 290 nM
- Inhibition at 10µM (%) (CDK8/Cyclin C; experiment 2): 0.659%
- IC50 (CDK8/Cyclin C; experiment 2): 230 nM
- Inhibition at 10µM (%) (CDK2/Cyclin E1; average): 94.2%
- IC50 (CDK2/Cyclin E1; average (± SEM where n=3)): 62 nM
- Inhibition at 10µM (%) (CDK2/Cyclin E1; experiment 1): 93.3%
- IC50 (CDK2/Cyclin E1; experiment 1): 63 nM
- Inhibition at 10µM (%) (CDK2/Cyclin E1; experiment 2): 95.2%
- IC50 (CDK2/Cyclin E1; experiment 2): 60 nM
- Inhibition at 10µM (%) (CDK13/Cyclin K; average): 35.2%
- Inhibition at 10µM (%) (CDK13/Cyclin K; experiment 1): 36.4%
- Inhibition at 10µM (%) (CDK13/Cyclin K; experiment 2): 33.9%
- Inhibition at 10µM (%) (CDK7; average): 93.3%
- IC50 (CDK7; average (± SEM where n=3)): 95 nM
- Inhibition at 10µM (%) (CDK7; experiment 1): 96.5%
- IC50 (CDK7; experiment 1): 100 nM
- Inhibition at 10µM (%) (CDK7; experiment 2): 90.2%
- IC50 (CDK7; experiment 2): 90 nM
- Inhibition at 10µM (%) (CDK17/Cyclin Y; average): 80.2%
- Inhibition at 10µM (%) (CDK17/Cyclin Y; experiment 1): 79.4%
- Inhibition at 10µM (%) (CDK17/Cyclin Y; experiment 2): 81.0%
- Inhibition at 10µM (%) (CDK3/Cyclin E1; average): 92.7%
- IC50 (CDK3/Cyclin E1; average (± SEM where n=3)): 75 nM
- Inhibition at 10µM (%) (CDK3/Cyclin E1; experiment 1): 92.6%
- IC50 (CDK3/Cyclin E1; experiment 1): 39 nM
- Inhibition at 10µM (%) (CDK3/Cyclin E1; experiment 2): 92.8%
- IC50 (CDK3/Cyclin E1; experiment 2): 110 nM
- Inhibition at 10µM (%) (CDK9/Cyclin K; average): 71.1%
- Inhibition at 10µM (%) (CDK9/Cyclin K; experiment 1): 68.0%
- Inhibition at 10µM (%) (CDK9/Cyclin K; experiment 2): 74.2%
- Inhibition at 10µM (%) (CDK11A/Cyclin L2; average): 29.9%
- Inhibition at 10µM (%) (CDK11A/Cyclin L2; experiment 1): 16.5%
- Inhibition at 10µM (%) (CDK11A/Cyclin L2; experiment 2): 43.3%
- Inhibition at 10µM (%) (CDK20/Cyclin H; experiment 1): 40.4%
- Inhibition at 10µM (%) (CDK20/Cyclin H; experiment 2): 47.3%
- Inhibition at 10µM (%) (CDK4/Cyclin D1; average): 72.2%
- Inhibition at 10µM (%) (CDK4/Cyclin D1; experiment 1): 63.2%
- Inhibition at 10µM (%) (CDK4/Cyclin D1; experiment 2): 81.2%
- Inhibition at 10µM (%) (CDK19/Cyclin C; average): 9.3%
- Inhibition at 10µM (%) (CDK19/Cyclin C; experiment 1): 26.1%
- Inhibition at 10µM (%) (CDK19/Cyclin C; experiment 2): -7.5%
